From patent US20220088016A1, “CANCER TREATMENT USING MULTI-TARGETED KINASE INHIBITOR IN COMBINATION OF PROTEIN KINASE BIOMARKERS” (ZHEJIANG CROWNMAB BIOTECH CO. LTD., priority 2019, published 2022)

How the values were obtained:
Test in all cases: Kinase profiling
Type in all cases: binding
Conditions in all cases: read-out: % Ctrl @ 1000 nM
MARK2 = MARK2 (Homo sapiens, UniProt Q7KZI7)
MET (Y1235D) = biological target: T1, MET (Y1235D) (Homo sapiens, UniProt P08581, Y1235D)
T1 construct: T7 phage fusion (stated for most kinases of the panel only); made in house; host or cells: T7 phage in E. coli (BL21-derived) or HEK-293 cells

MEK2 = biological target: T2, MEK2 (Homo sapiens, UniProt P36507)
T2 construct: T7 phage fusion (stated for most kinases of the panel only); made in house; host or cells: T7 phage in E. coli (BL21-derived) or HEK-293 cells

BMX = BMX (Homo sapiens, UniProt P51813)
BMX, sequence (P51813 whole entry): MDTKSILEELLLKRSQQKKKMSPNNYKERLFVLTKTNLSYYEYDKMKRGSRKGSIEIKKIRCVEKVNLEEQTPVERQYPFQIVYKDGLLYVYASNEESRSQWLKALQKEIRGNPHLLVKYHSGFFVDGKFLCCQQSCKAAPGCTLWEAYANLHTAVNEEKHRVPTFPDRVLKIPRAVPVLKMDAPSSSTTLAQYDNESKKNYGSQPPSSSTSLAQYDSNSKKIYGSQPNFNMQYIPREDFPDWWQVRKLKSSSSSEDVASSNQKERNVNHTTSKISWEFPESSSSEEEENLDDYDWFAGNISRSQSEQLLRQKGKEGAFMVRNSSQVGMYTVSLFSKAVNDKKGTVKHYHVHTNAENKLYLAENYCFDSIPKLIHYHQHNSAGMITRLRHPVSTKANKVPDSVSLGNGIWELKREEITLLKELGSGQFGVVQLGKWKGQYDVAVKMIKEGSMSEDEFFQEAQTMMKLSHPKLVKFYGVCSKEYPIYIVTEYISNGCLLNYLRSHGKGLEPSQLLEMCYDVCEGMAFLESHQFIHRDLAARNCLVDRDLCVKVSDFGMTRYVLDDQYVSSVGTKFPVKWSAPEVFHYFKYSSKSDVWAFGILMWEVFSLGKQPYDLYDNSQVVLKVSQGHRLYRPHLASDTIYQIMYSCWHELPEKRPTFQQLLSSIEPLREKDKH

[1] = biological target: EGFR (L747-S752del, P753S) (Homo sapiens, UniProt P00533, DEL747-752/P753S)
LYN = LYN (Homo sapiens, UniProt P07948)
IKK-beta = IKK-beta (Homo sapiens, UniProt O14920)
[2] = biological target: JAK3 (JH1domain-catalytic) (Homo sapiens, UniProt P52333)
LATS1 = LATS1 (Homo sapiens, UniProt O95835)
[3] = biological target: RSK1 (Kin.Dom.2-C-terminal) (Homo sapiens, UniProt Q15418)
EPHA2 = EPHA2 (Homo sapiens, UniProt P29317)
TLK2 = TLK2 (Homo sapiens, UniProt Q86UE8)
ROCK1 = ROCK1 (Homo sapiens, UniProt Q13464)
HIPK2 = HIPK2 (Homo sapiens, UniProt Q9H2X6)
MAP3K3 = MAP3K3 (Homo sapiens, UniProt Q99759)
MAP3K3, sequence (Q99759 whole entry): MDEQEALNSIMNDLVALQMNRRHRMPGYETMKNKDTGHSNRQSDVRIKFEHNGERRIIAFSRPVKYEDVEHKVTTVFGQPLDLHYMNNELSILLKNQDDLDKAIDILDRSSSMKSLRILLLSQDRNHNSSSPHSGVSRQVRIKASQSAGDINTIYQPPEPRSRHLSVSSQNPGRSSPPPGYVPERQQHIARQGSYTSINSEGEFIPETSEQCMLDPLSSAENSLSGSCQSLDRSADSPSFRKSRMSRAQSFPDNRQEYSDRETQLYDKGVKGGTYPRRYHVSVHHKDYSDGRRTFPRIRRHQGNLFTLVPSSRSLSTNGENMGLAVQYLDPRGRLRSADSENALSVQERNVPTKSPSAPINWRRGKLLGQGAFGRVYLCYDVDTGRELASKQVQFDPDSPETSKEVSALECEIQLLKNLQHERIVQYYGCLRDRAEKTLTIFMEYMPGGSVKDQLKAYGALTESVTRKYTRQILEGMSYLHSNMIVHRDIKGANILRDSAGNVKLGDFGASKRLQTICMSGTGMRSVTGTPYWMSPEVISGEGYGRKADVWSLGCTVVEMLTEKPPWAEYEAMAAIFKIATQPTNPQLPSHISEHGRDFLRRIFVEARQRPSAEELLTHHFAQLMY

DCAMKL3 = DCAMKL3 (Homo sapiens, UniProt Q9C098)
ASK1 = ASK1 (Homo sapiens, UniProt Q99683)
MELK = biological target: T3, MELK (Homo sapiens, UniProt Q14680)
T3 construct: T7 phage fusion (stated for most kinases of the panel only); made in house; host or cells: T7 phage in E. coli (BL21-derived) or HEK-293 cells
T3 sequence (Q14680 whole entry, the tested form may be a part): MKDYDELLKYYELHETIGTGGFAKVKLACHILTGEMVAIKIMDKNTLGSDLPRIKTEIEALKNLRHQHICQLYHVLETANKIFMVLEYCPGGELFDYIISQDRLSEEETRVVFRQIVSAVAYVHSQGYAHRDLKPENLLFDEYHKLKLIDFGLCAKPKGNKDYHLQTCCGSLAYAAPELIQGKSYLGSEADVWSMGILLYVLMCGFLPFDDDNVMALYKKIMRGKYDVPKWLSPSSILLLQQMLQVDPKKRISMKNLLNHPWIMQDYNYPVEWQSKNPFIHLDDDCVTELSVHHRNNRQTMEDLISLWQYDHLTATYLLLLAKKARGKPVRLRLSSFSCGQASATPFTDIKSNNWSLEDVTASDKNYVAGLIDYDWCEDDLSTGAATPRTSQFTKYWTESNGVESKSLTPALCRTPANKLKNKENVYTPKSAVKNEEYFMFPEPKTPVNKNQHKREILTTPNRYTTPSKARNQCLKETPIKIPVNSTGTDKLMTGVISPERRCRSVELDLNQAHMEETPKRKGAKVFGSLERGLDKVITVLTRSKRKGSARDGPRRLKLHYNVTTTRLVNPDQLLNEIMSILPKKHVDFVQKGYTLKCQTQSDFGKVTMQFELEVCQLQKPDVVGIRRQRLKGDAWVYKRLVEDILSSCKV

ULK3 = ULK3 (Homo sapiens, UniProt Q6PHR2)
CAMK2B = CAMK2B (Homo sapiens, UniProt Q13554)
PYK2 = PYK2 (Homo sapiens, UniProt Q14289)
PYK2, sequence (Q14289 whole entry): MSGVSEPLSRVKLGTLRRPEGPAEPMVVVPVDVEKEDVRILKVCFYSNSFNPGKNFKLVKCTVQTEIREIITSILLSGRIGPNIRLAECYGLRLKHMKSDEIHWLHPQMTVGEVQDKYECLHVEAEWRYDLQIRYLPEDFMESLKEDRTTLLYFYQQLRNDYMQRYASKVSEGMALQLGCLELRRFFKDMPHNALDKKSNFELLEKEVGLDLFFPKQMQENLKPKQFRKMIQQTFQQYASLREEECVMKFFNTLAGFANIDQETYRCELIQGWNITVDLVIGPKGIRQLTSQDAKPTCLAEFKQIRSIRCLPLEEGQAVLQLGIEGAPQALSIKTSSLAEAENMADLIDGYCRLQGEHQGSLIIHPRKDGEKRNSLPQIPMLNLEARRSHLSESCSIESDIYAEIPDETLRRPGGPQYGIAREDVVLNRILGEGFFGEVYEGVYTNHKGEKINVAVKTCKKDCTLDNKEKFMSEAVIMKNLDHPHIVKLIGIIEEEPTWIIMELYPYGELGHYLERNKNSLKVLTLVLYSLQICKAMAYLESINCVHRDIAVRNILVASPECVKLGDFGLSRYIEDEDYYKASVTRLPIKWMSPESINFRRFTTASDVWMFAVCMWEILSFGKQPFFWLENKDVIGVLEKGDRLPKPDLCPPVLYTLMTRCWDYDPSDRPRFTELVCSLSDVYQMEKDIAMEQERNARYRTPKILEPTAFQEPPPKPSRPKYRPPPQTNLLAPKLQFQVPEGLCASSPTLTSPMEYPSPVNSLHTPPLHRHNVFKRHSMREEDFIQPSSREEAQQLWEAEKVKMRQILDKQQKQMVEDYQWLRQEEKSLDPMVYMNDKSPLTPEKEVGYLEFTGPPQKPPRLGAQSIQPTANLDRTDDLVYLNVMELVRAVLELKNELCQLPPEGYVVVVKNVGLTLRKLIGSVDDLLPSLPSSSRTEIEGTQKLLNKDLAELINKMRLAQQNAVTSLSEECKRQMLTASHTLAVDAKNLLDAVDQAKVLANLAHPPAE

TRKA = TRKA (Homo sapiens, UniProt P04629)
DRAK1 = DRAK1 (Homo sapiens, UniProt Q9UEE5)
PIP5K2C = PIP5K2C (Homo sapiens, UniProt Q8TBX8)
AKT2 = AKT2 (Homo sapiens, UniProt P31751)
[4] = biological target: ABL1 (Q252H)-nonphosphorylated (Homo sapiens, UniProt P00519, Q252H)
LOK = LOK (Homo sapiens, UniProt O94804)
LOK, sequence (O94804 whole entry): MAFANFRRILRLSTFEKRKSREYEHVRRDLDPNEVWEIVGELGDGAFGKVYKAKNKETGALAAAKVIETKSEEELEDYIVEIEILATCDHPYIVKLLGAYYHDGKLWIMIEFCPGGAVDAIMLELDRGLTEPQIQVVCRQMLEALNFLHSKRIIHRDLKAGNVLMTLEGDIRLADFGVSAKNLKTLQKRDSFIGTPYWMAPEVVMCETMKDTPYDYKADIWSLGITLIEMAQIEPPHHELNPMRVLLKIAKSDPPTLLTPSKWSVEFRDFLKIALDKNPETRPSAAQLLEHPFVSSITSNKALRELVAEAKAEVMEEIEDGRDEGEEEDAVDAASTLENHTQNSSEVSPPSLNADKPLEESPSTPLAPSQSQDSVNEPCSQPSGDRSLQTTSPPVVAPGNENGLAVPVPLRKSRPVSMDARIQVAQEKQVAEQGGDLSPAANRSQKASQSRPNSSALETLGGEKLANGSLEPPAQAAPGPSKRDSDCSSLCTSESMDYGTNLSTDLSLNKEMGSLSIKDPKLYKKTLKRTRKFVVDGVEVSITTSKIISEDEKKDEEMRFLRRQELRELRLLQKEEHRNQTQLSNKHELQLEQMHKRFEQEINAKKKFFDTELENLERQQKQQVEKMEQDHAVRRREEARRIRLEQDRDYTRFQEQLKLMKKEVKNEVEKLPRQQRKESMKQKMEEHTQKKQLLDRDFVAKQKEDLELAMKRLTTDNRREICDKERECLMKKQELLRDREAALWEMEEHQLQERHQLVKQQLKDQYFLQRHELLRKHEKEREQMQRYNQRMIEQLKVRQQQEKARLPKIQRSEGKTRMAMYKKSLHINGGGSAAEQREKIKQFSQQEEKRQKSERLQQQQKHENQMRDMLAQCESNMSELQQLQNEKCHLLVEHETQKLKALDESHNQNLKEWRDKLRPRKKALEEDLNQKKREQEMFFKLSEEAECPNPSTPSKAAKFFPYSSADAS

LRRK2 (G2019S) = LRRK2 (G2019S) (Homo sapiens, UniProt Q5S007, G2019S)
AURKA = AURKA (Homo sapiens, UniProt O14965)
MUSK = biological target: T4, MUSK (Homo sapiens, UniProt O15146)
T4 construct: T7 phage fusion (said for most assays); made in house

p38-gamma = p38-gamma (Homo sapiens, UniProt P53778)
[5] = biological target: TYK2 (JH2domain-pseudokinase) (Homo sapiens, UniProt P29597)
TYK2 (JH2domain-pseudokinase), sequence (P29597 589-875 limits assumed): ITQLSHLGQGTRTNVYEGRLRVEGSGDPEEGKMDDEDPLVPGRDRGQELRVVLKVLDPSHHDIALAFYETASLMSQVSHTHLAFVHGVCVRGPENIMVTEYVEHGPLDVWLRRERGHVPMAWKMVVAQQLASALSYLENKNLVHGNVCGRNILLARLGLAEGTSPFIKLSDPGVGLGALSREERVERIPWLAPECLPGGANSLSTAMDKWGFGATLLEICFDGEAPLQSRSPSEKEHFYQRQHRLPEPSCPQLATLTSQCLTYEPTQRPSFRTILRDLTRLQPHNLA

MAP4K5 = MAP4K5 (Homo sapiens, UniProt Q9Y4K4)
[6] = biological target: ABL1 (F317L)-nonphosphorylated (Homo sapiens, UniProt P00519, F317L)
NEK9 = biological target: T5, NEK9 (Homo sapiens, UniProt Q8TD19)
T5 construct: T7 phage fusion (said for most assays); made in house

PIP5K1A = PIP5K1A (Homo sapiens, UniProt Q99755)
PIP5K1A, sequence (Q99755 whole entry): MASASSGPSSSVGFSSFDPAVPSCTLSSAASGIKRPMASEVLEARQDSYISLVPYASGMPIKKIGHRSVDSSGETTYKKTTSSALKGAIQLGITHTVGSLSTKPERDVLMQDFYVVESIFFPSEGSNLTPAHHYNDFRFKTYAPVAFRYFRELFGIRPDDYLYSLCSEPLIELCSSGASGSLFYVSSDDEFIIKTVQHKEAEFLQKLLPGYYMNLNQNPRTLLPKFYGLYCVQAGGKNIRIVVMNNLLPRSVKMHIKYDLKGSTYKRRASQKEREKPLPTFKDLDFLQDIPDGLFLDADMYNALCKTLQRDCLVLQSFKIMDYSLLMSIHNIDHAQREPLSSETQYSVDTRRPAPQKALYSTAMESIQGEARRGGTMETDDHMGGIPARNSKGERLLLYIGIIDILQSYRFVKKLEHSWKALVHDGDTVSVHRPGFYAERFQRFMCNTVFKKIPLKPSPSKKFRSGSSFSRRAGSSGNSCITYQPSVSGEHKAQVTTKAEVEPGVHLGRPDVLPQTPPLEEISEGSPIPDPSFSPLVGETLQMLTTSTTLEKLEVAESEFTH

[7] = biological target: RPS6KA4 (Kin.Dom.2-C-terminal) (Homo sapiens, UniProt O75676)
RPS6KA4 (Kin.Dom.2-C-terminal), sequence (O75676 411-674 limits assumed): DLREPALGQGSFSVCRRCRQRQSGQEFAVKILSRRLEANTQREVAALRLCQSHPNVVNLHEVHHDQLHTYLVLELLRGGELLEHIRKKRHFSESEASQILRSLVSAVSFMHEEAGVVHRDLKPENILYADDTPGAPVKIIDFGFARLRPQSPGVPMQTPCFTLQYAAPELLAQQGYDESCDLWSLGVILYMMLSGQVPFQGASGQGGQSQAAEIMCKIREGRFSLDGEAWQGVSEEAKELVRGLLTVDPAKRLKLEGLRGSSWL

For `Cc1cc(Oc2cc(NC(=O)C3CC3)ncn2)ccc1NC(=O)Nc1ccc(Cl)c(C(F)(F)F)c1` [CBT-102], the remaining activity at 1 µM (MARK2) was 76%, the remaining activity at 1 µM (MET (Y1235D)) was 79% and the remaining activity at 1 µM (MEK2) was 76%. For the same compound, the remaining activity at 1 µM (BMX) was 90%, the remaining activity at 1 µM [1] was 85% and the remaining activity at 1 µM (LYN) was 20%. The remaining activity at 1 µM (IKK-beta) was 92%, the remaining activity at 1 µM [2] was 82% and the remaining activity at 1 µM (LATS1) was 80%. It also gave a remaining activity at 1 µM [3] of 94%, a remaining activity at 1 µM (EPHA2) of 40% and a remaining activity at 1 µM (TLK2) of 100%. For the same compound, the remaining activity at 1 µM (ROCK1) was 100%, the remaining activity at 1 µM (HIPK2) was 90% and the remaining activity at 1 µM (MAP3K3) was 95%. It also gave a remaining activity at 1 µM (DCAMKL3) of 100%, a remaining activity at 1 µM (ASK1) of 91% and a remaining activity at 1 µM (MELK) of 84%. The remaining activity at 1 µM (ULK3) was 88%, the remaining activity at 1 µM (CAMK2B) was 97% and the remaining activity at 1 µM (PYK2) was 93%. For the same compound, the remaining activity at 1 µM (TRKA) was 74%, the remaining activity at 1 µM (DRAK1) was 100% and the remaining activity at 1 µM (PIP5K2C) was 85%. The remaining activity at 1 µM (AKT2) was 100%, the remaining activity at 1 µM [4] was 6% and the remaining activity at 1 µM (LOK) was 0.1%. The remaining activity at 1 µM (LRRK2 (G2019S)) was 38%, the remaining activity at 1 µM (AURKA) was 86% and the remaining activity at 1 µM (MUSK) was 47%. For the same compound, the remaining activity at 1 µM (p38-gamma) was 28%, the remaining activity at 1 µM [5] was 100% and the remaining activity at 1 µM (MAP4K5) was 2.2%. For the same compound, the remaining activity at 1 µM [6] was 16%, the remaining activity at 1 µM (NEK9) was 96% and the remaining activity at 1 µM (PIP5K1A) was 100%. The remaining activity at 1 µM [7] was 100%.
